From the Kinase Knowledgebase extract (Sharma et al. 2016)

Tests used:
[1] = molecular target: CDK2 (human) (UniProt P24941); experiment: Enzyme Assay
[2] = molecular target: CDK2 (human) (UniProt P24941); experiment: Cell-Based Assay
[3] = molecular target: CDK2 (human) (UniProt P24941); experiment: Cell-Based Assay; conditions: rko

SMILES	IC50 [1] [nM]	IC50 ([2]; rko) [nM]	IC50 [3] [nM]	IC50 ([2]; hdf) [nM]	IC50 ([2]; hdf-3) [nM]	IC50 ([2]; mes/sa) [nM]	IC50 ([2]; mda-mb-468) [nM]
CN(C)S(=O)(=O)c1ccc(N/C=C2\C(=O)Nc3ccc(-c4cnco4)cc32)cc1	5.5	3050	3050	–	–	–	–
NS(=O)(=O)c1ccc(NN=C2C(=O)Nc3ccc(-c4cnco4)cc32)cc1	5.5	800	800	3050	800	300	–
CS(=O)(=O)Cc1ccc(N/C=C2\C(=O)Nc3ccc4ncsc4c32)cc1	30.5	3050	–	–	3050	3050	–
CN(C)S(=O)(=O)c1ccc(N/C=C2/C(=O)Nc3ccc(-c4cnco4)cc32)cc1	–	–	–	–	–	–	> 5000
CNS(=O)(=O)Cc1ccc(NN=C2C(=O)Nc3ccc4ncccc4c32)cc1	5.5	3050	–	–	3050	–	–

The remaining compounds from weak to strong by IC50 [1], led by results:

IC50 [1] [nM]	IC50 ([2]; rko) [nM]	IC50 [3] [nM]	IC50 ([2]; hdf) [nM]	IC50 ([2]; hdf-3) [nM]	IC50 ([2]; mes/sa) [nM]	IC50 ([2]; mda-mb-468) [nM]	SMILES
75.5	300	300	800	3050	–	–	CNS(=O)(=O)Cc1ccc(NN=C2C(=O)Nc3cc(C)c(O)c(C)c32)cc1
30.5	–	–	–	–	–	3050	O=C1Nc2ccc3ncsc3c2/C1=C/Nc1ccc2nn[nH]c2c1
5.5	3050	–	–	3050	–	–	CCC(C)Cc1cccc2c1C(=NNc1ccc(S(N)(=O)=O)cc1)C(=O)N2 (configuration not stated)
